Source: patent US11590117B2, “Treatment of a hematologic malignancy with 2-(4-chlorophenyl)-n-((2-(2,6-dioxopiperidin-3-yl)-1-oxoisoindolin-5-yl)methyl)-2,2-difluoroacetamide” (priority 2016, dated 2023)
Like-named read-outs stand apart in the source and are kept apart here.

Experiments:
Experiment in all cases: CellTiter-Glo (CTG) cell proliferation assay, 72 hours
Type in all cases: cell-based, human
Kasumi-1 = test system: Kasumi-1
Experimental: (§1) Preparation of Solutions of Test Article: Compounds were plated into black 384-well plates (Corning Inc.) to a final DMSO volume of 0.1% assuming a maximal volume of 50 μL. A 10-point dose response starting at 10 μM with a 1:3 dilution was printed in duplicate by acoustic dispense using the EDC ATS-100 platform.
(§2) Cell Proliferation Assays: The effect of Compound 1 on the proliferation/viability of the hematological cell lines (Table 1 Table, Table 2 and Table 3), THLE-2, or PBMCs was assessed after 72 hours incubation using CTG (Promega), according to manufacturer's instructions. Hematological cell lines were dispensed into compound plates by a Multidrop™ Combi Reagent Dispenser (Thermo Scientific, Waltham, Mass.) at a concentration of 0.1 to 0.3×10^6 cells per mL in a 50 μL total volume. THLE-2 cells were seeded out at 1000 cells per well in 50 μL volume and incubated for 72 hours. At 72 hours, 25 μL per well of CTG was dispensed by a Multidrop™ Combi Reagent Dispenser and adenosine triphosphate (ATP) release by viable cells was measured as relative luminescence units after 30 minutes using the Envision platform.
(§3) Proliferation was assessed using the CellTitre-Glo® assay. Results for cultures incubated with Compound 1 were normalized to results for control cultures for each cell line. The IC50 for inhibition of cell growth by Compound 1 was determined for each cell line using ActivityBase software.
(§4) Cultures of 11 different AML cell lines were incubated 72 hours with Compound 1 at concentrations of 0.5 nM to 10 μM. Proliferation was assessed using the CellTitre-Glo® assay. Results for cultures incubated with Compound 1 were normalized to results for control cultures for each cell line. Inhibition of cell growth was also determined in THLE-2 cells at Compound 1 concentrations of 0.1 nM to 100 μM and in PBMCs at Compound 1 concentrations of 0.5 nM to […]. The Compound 1 therapeutic window was calculated using area under the curve (AUC; Activity Area [Barretina et al, Nature (2012) 483603-607] measurements (in arbitrary units) as determined using GraphPad Prism software for plots of cell proliferation vs concentration and dividing the AUC for the immortalized (but nontumorigenic) human THLE-2 hepatocyte cell line or PBMCs by the AUC for the AML cell line.

OCI-AML3 = settings: for IC50: liquid culture
Experimental: as §1, §2, §3, §4

HL-60 = test system: HL-60
Experimental: as §1, §2, §3, §4

MOLM-13 = test system: MOLM-13
Experimental: as §1, §2, §3, §4

KG-1 = test system: KG-1
Experimental: as §1, §2, §3, §4

NB-4 = test system: NB-4
Experimental: as §1, §2, §3, §4

KG-1a = test system: KG-1a
Experimental: as §1, §2, §3, §4

MV-4-11 = test system: MV-4-11
Experimental: as §1, §2, §3, §4

U-937 = test system: U-937
Experimental: as §1, §2, §3, §4

OCI-AML2 = test system: OCI-AML2
Experimental: as §1, §2, §3, §4

HNT-34 = settings: for IC50: Homo sapiens
Experimental: as §1, §2, §3, §4

[1] = Kasumi-1, AUC PBMCs divided by AUC AML cell line
[2] = Kasumi-1, AUC THLE-2 divided by AUC AML cell line
[3] = OCI-AML3, AUC PBMCs divided by AUC AML cell line
[4] = OCI-AML3, AUC THLE-2 divided by AUC AML cell line
[5] = HL-60, AUC PBMCs divided by AUC AML cell line
[6] = HL-60, AUC THLE-2 divided by AUC AML cell line
[7] = MOLM-13, AUC PBMCs divided by AUC AML cell line
[8] = MOLM-13, AUC THLE-2 divided by AUC AML cell line
[9] = KG-1, AUC PBMCs divided by AUC AML cell line
[10] = KG-1, AUC THLE-2 divided by AUC AML cell line
[11] = NB-4, AUC PBMCs divided by AUC AML cell line
[12] = NB-4, AUC THLE-2 divided by AUC AML cell line
[13] = AUC PBMCs divided by AUC AML cell line
[14] = AUC THLE-2 divided by AUC AML cell line
[15] = MV-4-11, AUC PBMCs divided by AUC AML cell line
[16] = MV-4-11, AUC THLE-2 divided by AUC AML cell line
[17] = U-937, AUC PBMCs divided by AUC AML cell line
[18] = U-937, AUC THLE-2 divided by AUC AML cell line
[19] = OCI-AML2, AUC PBMCs divided by AUC AML cell line
[20] = OCI-AML2, AUC THLE-2 divided by AUC AML cell line
[21] = HNT-34, AUC PBMCs divided by AUC AML cell line
[22] = HNT-34, AUC THLE-2 divided by AUC AML cell line

For `O=C1CCC(N2Cc3cc(CNC(=O)C(F)(F)c4ccc(Cl)cc4)ccc3C2=O)C(=O)N1` (centres unmarked) [Compound 1, 2-(4-chlorophenyl)-N-((2-(2,6-dioxopiperidin-3-yl)-1-oxoisoindolin-5-yl)methyl)-2,2-difluoroacetamide], the IC50 (Kasumi-1; Homo sapiens, Kasumi 1, 72 h, read-out: Proliferation IC50 (mean ± SD)) was 21 ± 13 nM, the “Therapeutic Window Method 1 As Compared with PBMCs” value (Kasumi-1; [1]) was 6.6 and the “Therapeutic Window Method 2 As Compared with PBMCs” value (Kasumi-1; [1]) was 3.8. The “Therapeutic Window Method 1 As Compared with THLE-2 Cells” value (Kasumi-1; [2]) was 10, the “Therapeutic Window Method 2 As Compared with THLE-2 Cells” value (Kasumi-1; [2]) was 14.5 and the AUC (Kasumi-1; Kasumi-1, Activity Area of proliferation vs concentration, 72 hours, 0.5 nM to 10 μM) was 37.9 arbitrary units. For the same compound, the IC50 (OCI-AML3; Homo sapiens, OCI-AML-3, 72 h, read-out: Proliferation IC50 (mean ± SD), OCI-AML3, 72 hours) was 3000 nM, the “Therapeutic Window Method 1 As Compared with PBMCs” value (OCI-AML3; [3]) was 0.45 and the “Therapeutic Window Method 2 As Compared with PBMCs” value (OCI-AML3; [3]) was 0.3. For the same compound, the “Therapeutic Window Method 1 As Compared with THLE-2 Cells” value (OCI-AML3; [4]) was 0.70, the “Therapeutic Window Method 2 As Compared with THLE-2 Cells” value (OCI-AML3; [4]) was 1.0 and the AUC (OCI-AML3; OCI-AML3, Activity Area of proliferation vs concentration, 72 hours, 0.5 nM to 10 μM) was 563.0 arbitrary units. For the same compound, the IC50 (OCI-AML3; read-out: Proliferation IC50 (mean ± SD), OCI-AML3, 72 hours) was 3400 ± 3330 nM, the “Therapeutic Window Method 1 As Compared with PBMCs” value (HL-60; [5]) was 11 and the “Therapeutic Window Method 2 As Compared with PBMCs” value (HL-60; [5]) was 6.1. The “Therapeutic Window Method 1 As Compared with THLE-2 Cells” value (HL-60; [6]) was 17, the “Therapeutic Window Method 2 As Compared with THLE-2 Cells” value (HL-60; [6]) was 23.2 and the AUC (HL-60; HL-60, Activity Area of proliferation vs concentration, 72 hours, 0.5 nM to 10 μM) was 23.7 arbitrary units. For the same compound, the IC50 (HL-60; Homo sapiens, HL-60, 72 h, read-out: Proliferation IC50 (mean ± SD)) was 20 ± 10 nM, the IC50 (MOLM-13; Homo sapiens, MOLM-13, 72 h, read-out: Proliferation IC50 (mean ± SD)) was 75 ± 33 nM and the “Therapeutic Window Method 1 As Compared with PBMCs” value (MOLM-13; [7]) was 6.3. The “Therapeutic Window Method 2 As Compared with PBMCs” value (MOLM-13; [7]) was 3.7, the “Therapeutic Window Method 1 As Compared with THLE-2 Cells” value (MOLM-13; [8]) was 9.9 and the “Therapeutic Window Method 2 As Compared with THLE-2 Cells” value (MOLM-13; [8]) was 13.9. The AUC (MOLM-13; MOLM-13, Activity Area of proliferation vs concentration, 72 hours, 0.5 nM to 10 μM) was 39.6 arbitrary units, the IC50 (KG-1; Homo sapiens, KG-1, 72 h, read-out: Proliferation IC50 (mean ± SD)) was 15 ± 6 nM and the “Therapeutic Window Method 1 As Compared with PBMCs” value (KG-1; [9]) was 3.8. For the same compound, the “Therapeutic Window Method 2 As Compared with PBMCs” value (KG-1; [9]) was 2.2, the “Therapeutic Window Method 1 As Compared with THLE-2 Cells” value (KG-1; [10]) was 6.0 and the “Therapeutic Window Method 2 As Compared with THLE-2 Cells” value (KG-1; [10]) was 8.3. The AUC (KG-1; KG-1, Activity Area of proliferation vs concentration, 72 hours, 0.5 nM to 10 μM) was 65.8 arbitrary units, the IC50 (NB-4; Homo sapiens, NB-4, 72 h, read-out: Proliferation IC50 (mean ± SD)) was 17 ± 5 nM and the “Therapeutic Window Method 1 As Compared with PBMCs” value (NB-4; [11]) was 17. The “Therapeutic Window Method 2 As Compared with PBMCs” value (NB-4; [11]) was 10.1, the “Therapeutic Window Method 1 As Compared with THLE-2 Cells” value (NB-4; [12]) was 27 and the “Therapeutic Window Method 2 As Compared with THLE-2 Cells” value (NB-4; [12]) was 38.1. The AUC (NB-4; NB-4, Activity Area of proliferation vs concentration, 72 hours, 0.5 nM to 10 μM) was 14.4 arbitrary units, the “Therapeutic Window Method 1 As Compared with PBMCs” value (KG-1a; [13]) was 2.6 and the “Therapeutic Window Method 2 As Compared with PBMCs” value (KG-1a; [13]) was 1.5. The “Therapeutic Window Method 1 As Compared with THLE-2 Cells” value (KG-1a; [14]) was 4.1, the “Therapeutic Window Method 2 As Compared with THLE-2 Cells” value (KG-1a; [14]) was 5.7 and the AUC (KG-1a; Activity Area of proliferation vs concentration, 72 hours, 0.5 nM to 10 μM) was 96.9 arbitrary units. For the same compound, the IC50 (KG-1a; Homo sapiens, 72 h, read-out: Proliferation IC50 (mean ± SD)) was 21 ± 10 nM, the IC50 (MV-4-11; Homo sapiens, MV4-11, 72 h, read-out: Proliferation IC50 (mean ± SD)) was 29 ± 10 nM and the “Therapeutic Window Method 1 As Compared with PBMCs” value (MV-4-11; [15]) was 12. The “Therapeutic Window Method 2 As Compared with PBMCs” value (MV-4-11; [15]) was 7.1, the “Therapeutic Window Method 1 As Compared with THLE-2 Cells” value (MV-4-11; [16]) was 19 and the “Therapeutic Window Method 2 As Compared with THLE-2 Cells” value (MV-4-11; [16]) was 26.8. For the same compound, the AUC (MV-4-11; MV-4-11, Activity Area of proliferation vs concentration, 72 hours, 0.5 nM to 10 μM) was 20.5 arbitrary units, the IC50 (U-937; Homo sapiens, U-937, 72 h, read-out: Proliferation IC50 (mean ± SD)) was 74 ± 25 nM and the “Therapeutic Window Method 1 As Compared with PBMCs” value (U-937; [17]) was 6.3. For the same compound, the “Therapeutic Window Method 2 As Compared with PBMCs” value (U-937; [17]) was 3.6, the “Therapeutic Window Method 1 As Compared with THLE-2 Cells” value (U-937; [18]) was 9.8 and the “Therapeutic Window Method 2 As Compared with THLE-2 Cells” value (U-937; [18]) was 13.7. The AUC (U-937; U-937, Activity Area of proliferation vs concentration, 72 hours, 0.5 nM to 10 μM) was 40.0 arbitrary units, the IC50 (OCI-AML2; Homo sapiens, OCI-AML2, 72 h, read-out: Proliferation IC50 (mean ± SD)) was 57 ± 21 nM and the “Therapeutic Window Method 1 As Compared with PBMCs” value (OCI-AML2; [19]) was 14. The “Therapeutic Window Method 2 As Compared with PBMCs” value (OCI-AML2; [19]) was 8.1, the “Therapeutic Window Method 1 As Compared with THLE-2 Cells” value (OCI-AML2; [20]) was 22 and the “Therapeutic Window Method 2 As Compared with THLE-2 Cells” value (OCI-AML2; [20]) was 30.7. The AUC (OCI-AML2; OCI-AML2, Activity Area of proliferation vs concentration, 72 hours, 0.5 nM to 10 μM) was 17.9 arbitrary units, the “Therapeutic Window Method 1 As Compared with PBMCs” value (HNT-34; [21]) was 36 and the “Therapeutic Window Method 2 As Compared with PBMCs” value (HNT-34; [21]) was 21. For the same compound, the “Therapeutic Window Method 1 As Compared with THLE-2 Cells” value (HNT-34; [22]) was 57, the “Therapeutic Window Method 2 As Compared with THLE-2 Cells” value (HNT-34; [22]) was 79.5 and the AUC (HNT-34; HNT-34, Activity Area of proliferation vs concentration, 72 hours, 0.5 nM to 10 μM) was 6.9 arbitrary units. The IC50 (HNT-34; HNT-34, 72 h, read-out: Proliferation IC50 (mean ± SD)) was 3 ± 1 nM and the IC50 (HNT-34; HNT-34 as sensitive positive control cell line in PBMC comparison, 72 hours, read-out: CTG IC50) was 2 nM.
